Data reported in patent US12139487B2, “Compounds and uses thereof” (Foghorn Therapeutics Inc., priority 2022, dated 2024).

Tested on: BRM-dependent transcription (BRG1 mutant lung cancer cell line A549)
Test: BRM-dependent transcription, MMTV luciferase reporter in BRG1 mutant A549 cells
Format: cell-based
Settings: Table 11; for IC50: A549-MMTV luciferase reporter, dexamethasone induced, 6 hours; for Ratio (MDA-MMTV IC50 (μM) divided by A549-MMTV IC50 (μM)): MMTV luciferase reporter cell lines, selectivity BRG1/BRM
How it was run: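 Compound dose series added to dexamethasone-stimulated A549 cells (BRG1 mutant) carrying a BRM-dependent mouse mammary tumor virus luciferase reporter; luminescence measured at 6 h post-stimulation.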

| Structure (SMILES) | IC50 (Homo sapiens, A549, 6 h) [nM] | Ratio (MDA-MMTV IC50 (μM) divided by A549-MMTV IC50 (μM)) | IC50 [nM] |
| --- | --- | --- | --- |
| [2H]C([2H])([2H])c1cc(C(=O)NCc2cc3nc(-c4cccc(N5C[C@@H](C)O[C@@H](C)C5)n4)ccc3cn2)cc2c1OCC[C@H](F)S2(=O)=O [Compound 433] | 3 | 27.74 |  |
| [2H]C([2H])([2H])C([2H])([2H])Oc1nc(C(F)F)ccc1-c1ccc2cnc(CNC(=O)c3cc(Cl)c4c(c3)S(=O)(=O)[C@@H](F)COC4)cc2n1 [Compound 495] | 15.1 | 32.03 |  |
| CCOc1nc([C@@H](F)CF)ccc1-c1ccc2cnc(CNC(=O)c3cc(Cl)c4c(c3)S(=O)(=O)[C@@H](F)COC4)cc2n1 [Compound 516] |  | 31.51 | 12.1 |
| O=C(NCc1cc2nc(-c3ccc([C@H](F)C(F)F)c(C4CC4)n3)ccc2cn1)c1cc(F)c2c(c1)S(=O)(=O)[C@@H](F)COC2 [Compound 453] | 8.8 | 28.72 |  |
| O=C(NCc1cc2nc(-c3cncc(OC(F)F)n3)ccc2cn1)c1cc(Cl)c2c(c1)S(=O)(=O)[C@@H](F)COC2 [Compound 452] | 20.4 | 28.85 |  |
| CCOc1nc([C@@H](F)CF)ccc1-c1ccc2cnc(CNC(=O)c3cc(Br)c4c(c3)S(=O)(=O)[C@@H](F)COC4)cc2n1 [Compound 517] |  | 35.51 | 20.4 |
| [2H]C([2H])([2H])C([2H])([2H])Oc1nc([C@H](F)CF)ccc1-c1ccc2cnc(CNC(=O)c3cc(Br)c4c(c3)S(=O)(=O)[C@@H](F)COC4)cc2n1 [Compound 485] | 12 | 49.42 |  |
| O=C(NCc1cc2nc(-c3ccc(OC(F)F)c([C@H]4CC4(F)F)n3)ccc2cn1)c1cc(Cl)c2c(c1)S(=O)(=O)[C@@H](F)COC2 [Compound 447] | 13.8 | 22.11 |  |
| CCOc1nc([C@@H](F)CF)ccc1-c1ccc2cnc(CNC(=O)c3cc(Cl)c4c(c3)S(=O)(=O)[C@@H](F)CCO4)cc2n1 [Compound 423] | 10.4 | 32.08 |  |
| CN1Cc2c(Cl)cc(C(=O)NCc3cc4nc(-c5cccc(OC(F)F)n5)ccc4cn3)cc2S(=O)(=O)[C@H](F)C1 [Compound 466] | 24.6 | 48.16 |  |
| O=C(NCc1cc2nc(-c3cccc(C(F)F)n3)ccc2cn1)c1cc(F)c2c(c1)S(=O)(=O)[C@@H](F)CCO2 [Compound 334] | 19 | 26.38 |  |
| O=C(NCc1cc2nc(-c3ccc([C@H](F)CF)nc3OC(F)F)ccc2cn1)c1cc(F)c2c(c1)S(=O)(=O)[C@@H](F)CCO2 [Compound 392] | 4.7 | 24.22 |  |
| CCOc1nc([C@H](F)CF)ccc1-c1ccc2cnc(CNC(=O)c3cc(Cl)c4c(c3)S(=O)(=O)[C@@H](F)COC4)cc2n1 [Compound 481] |  | 50.79 | 10.2 |
| O=C(NCc1cc2nc(-c3cccc(OC(F)F)c3)ccc2cn1)c1cc(F)c2c(c1)S(=O)(=O)[C@@H](F)CCO2 [Compound 342] | 17.9 | 23.62 |  |
| [2H]C([2H])([2H])C([2H])([2H])Oc1nc([C@@H](F)CF)ccc1-c1ccc2cnc(CNC(=O)c3cc(C(F)F)c4c(c3)S(=O)(=O)[C@@H](F)COC4)cc2n1 [Compound 479] | 6.2 | 35.46 |  |
| Cc1cc(C(=O)NCc2cc3nc(-c4ccc(C(F)F)c(C5CC5)n4)ccc3cn2)cc2c1OCC[C@H](F)S2(=O)=O [Compound 385] | 20.9 | 22.49 |  |
| O=C(NCc1cc2nc(-c3ccc([C@H](F)CF)c(C4CC4)n3)ccc2cn1)c1cc(F)c2c(c1)S(=O)(=O)[C@@H](F)CCO2 [Compound 411] | 8.6 | 24.27 |  |
| [2H]C([2H])([2H])OCCOc1cnc2c(c1)OCCN2c1ccc2cnc(CNC(=O)c3cc(C(F)F)c4c(c3)S(=O)(=O)[C@@H](F)COC4)cc2n1 [Compound 484] | 5.4 | 28.00 |  |
| O=C(NCc1cc2nc(-c3ccc([C@@H](F)CF)c(C4CC4)n3)ccc2cn1)c1cc(F)c2c(c1)S(=O)(=O)[C@@H](F)CCO2 [Compound 406] | 5.9 | 27.42 |  |
| [2H]C1([2H])Oc2c(F)cc(C(=O)NCc3cc4nc(-c5ccc(OCC)c(C6CC6(F)F)n5)ccc4cn3)cc2S(=O)(=O)[C@@]([2H])(F)C1([2H])[2H] (some centres unmarked) [Compound 374] | 17.8 | 54.50 |  |
| O=C(NCc1cc2nc(-c3cccc(C4CC4)n3)ccc2cn1)c1cc(C(F)F)c2c(c1)S(=O)(=O)[C@@H](F)COC2 [Compound 429] | 16.9 | 32.94 |  |
| CC(C)c1ccc(-c2ccc3cnc(CNC(=O)c4cc(F)c5c(c4)S(=O)(=O)[C@@H](F)CCO5)cc3n2)nc1C1CC1 [Compound 396] | 13.8 | 25.74 |  |
